Values quoted from earlier work as cited in patent US20060068010A1, “Method for improving the bioavailability of orally delivered therapeutics” (priority 2004, published 2006).
Where a name gives a salt, the structure may show the parent alone. Read-outs that look alike come from different tables or passages of the source.

Columns and labels:
[1] = normalized to glycine = 0, most hydrophobic = 100
[2] = humans

SMILES	Hydrophobicity Index ([1]; At pH 2)	Hydrophobicity Index ([1]; At pH 7)	also measured
CC[C@H](C)[C@H](N)C(=O)O [Ile, isoleucine]	100	99	–
CC(C)[C@H](N)C(=O)O [Val, valine]	79	76	–
N[C@@H](Cc1c[nH]c2ccccc12)C(=O)O [Trp, tryptophan]	84	97	–
NCCCC[C@H](N)C(=O)O [Lys, lysine]	−37	−23	–
N[C@@H](CS)C(=O)O [Cys, cysteine]	52	49	–
O=C(c1ccc(OCCN2CCCCC2)cc1)c1c(-c2ccc(O)cc2)sc2cc(O)ccc12 [raloxifene hydrochloride, 6-hydroxy-2-(4-hydroxyphenyl)-3-[4-(2-piperidinoethoxy)benzoyl]benzo[p]-thiophene]	–	–	solubility (hydrochloride-salt form): approximately 0.3 mg/mL; solubility classification (hydrochloride-salt form): very slightly soluble
CC(C)NCC(O)COc1ccc(CC(N)=O)cc1 (stereo not drawn) [Atenolol, benzeneacetamide, 4-[2′-hydroxy-3′-[(1-methylethyl)amino]propoxy]-]	–	–	fraction of an oral dose absorbed from the gastrointestinal tract [2]: about 50%
N[C@@H](Cc1ccccc1)C(=O)O [Phe, phenylalanine]	92	100	–
Cc1nccn1CC1CCc2c(c3ccccc3n2C)C1=O (racemic) [ondansetron, (+/−) 1,2,3,9-tetrahydro-9-methyl-3-[2-methyl-1H-imidazol-1-yl]-4H-carbazol-4-one, monohydrochloride, dehydrate]	–	–	solubility classification (base form, at pH greater than 5.0): low solubility
NC(=O)C[C@H](N)C(=O)O [Asn, asparagine]	−41	−28	–
CSCC[C@H](N)C(=O)O [Met, methionine]	74	74	–
CN(CCOc1ccc(CC2SC(=O)NC2=O)cc1)c1ccccn1.O=C(O)/C=C\C(=O)O (racemic) [Rosiglitazone maleate, (±)-5-[[4-[2-(methyl-2-pyridinylamino)ethoxy]phenyl]methyl]-2,4-thiazolidinedione, (Z)-2-butenedioate (1:1)]	–	–	solubility dependence on pH (physiological pH range): decreases with increased pH
N[C@@H](Cc1ccc(O)cc1)C(=O)O [Tyr, tyrosine]	49	63	–
N[C@@H](Cc1c[nH]cn1)C(=O)O [His, histidine]	−42	8	–
C[C@H](N)C(=O)O [Ala, Alanine]	47	41	–
